Laboratory results reported in patent EP3366310A1, “L-ARABINOSE AND USES THEREOF AGAINST VIBRIO GENUS BACTERIA” (priority 2017, dated 2018).

Assays:
V. cholerae N16961 [1] = assay: Growth curves (optical density at 600 nm over time); assay type: cell-based, Vibrio cholerae; conditions: for effect on V. cholerae growth or morphology: M9-MM, 0.2% of carbon source (Table 1 and Figure 5)
Description: Cells were grown at 30°C in M9 minimal medium supplemented with 0.2% fructose and 1 µg/ml thiamine (M9-MM) and M9-MM + 0.1% casamino acids (M9-MM + CAA) in a 96-well microtiter plate and the optical density at 600 nm followed over time in a Tecan plate reader. The growth curves plotted are the average of three replicates; the standard deviation is represented for each time point.
(§1) During experiments in which inventors used an arabinose-inducible promoter to express fluorescently tagged proteins in V. cholerae, they occasionally observed the presence of spherical cells. […]. To better understand this phenotype, inventors grew V. cholerae cells to exponential phase in different liquid media and added increasing concentrations of L-Ara. After a few hours, they inspected the cells morphology at the microscope. […] To see the effect of L-Ara on cell proliferation and growth, overnight cultures were diluted into fresh media containing increasing amounts of the inducer. The OD of these cultures was monitored over time (Figure 2). […].

EPV50 = assay: Muropeptide analysis (peptidoglycan isolation and UPLC); assay type: cell-based, Vibrio cholerae
Description: EPV50 overnight cultures were diluted 200 times in M9-MM and grown at 30°C. 100 ml were centrifuged after 7 hours of growth and 1L of culture to which 0.2% L-Ara was added after 2 hours was harvested after further 5 hours of incubation. Cells were checked for complete transition to spherical morphology at the microscope. Previously described methods were followed for muropeptide isolation and ultra-performance liquid chromatography (UPLC) analysis [Desmarais et al. and Möll et al.]. After boiling for 2 hours cell pellets with SDS (sodium dodecyl sulfate) the lysates were left stirring over night at room temperature. Cell wall material was pelleted, washed with MQ water to remove the SDS, and digested with pronase E to remove Braun's lipoprotein. Purified peptidoglycan was re-suspended in MQ water and treated overnight with muramidase at 37°C. Soluble muropeptides were reduced with sodium borohydride and the pH then adjusted to 3.5 with phosphoric acid. Samples were injected in an ultra-performance liquid chromatography (UPLC) system to obtain the muropeptide profiles. UPLC separation was performed on a Waters UPLC system equipped with an ACQUITY UPLC BEH C18 Column, 130 Å, 1.7 µm, 2.1 mm × 150 mm (Waters) and a dual wavelength absorbance detector using a linear gradient from buffer A (phosphate buffer 50 mM, pH 4.35) to buffer B (phosphate buffer 50 mM, pH 4.95, methanol 15% (vol/vol)) in a 22-min run with a 0.25 mL/min flow. Elution of muropeptides was detected at 204 nm. Identity of the peaks was assigned by comparison of the retention times and profiles to other chromatograms in which mass spectrometry data has been collected. The relative amounts of the muropeptides and the percentage of cross-linkage were calculated as described by Glauner et al. To calculate the amount of peptidoglycan per cell, the total area of the muropeptides was normalized to the OD of the culture. All values are the means of three independent experiments.

[2] = system: EPV50 (derived from El Tor isolate N16961); assay: microbe, parasite or virus in culture; assay type: cell-based; conditions: Vibrio cholerae
Description: An EPV50 (derived from El Tor isolate N16961) overnight culture was diluted 200 times in M9-MM, followed by 2 hours of growth at 30°C before 0.2% L-Ara was added and growth continued for other 5 hours. Cells were checked for complete transition to spherical morphology at the microscope. Serial dilutions of t0 (before L-Ara addition) and t1 (after L-Ara treatment) samples were plated on Luria Bertani (LB) agarose plates and the number of colonies used to calculate the CFU at t0 and t1. The ratio CFU t1 / CFU t0 is used to calculate the percentage of cells able to survive L-Ara treatment and revert to proliferating cells.

V. cholerae N16961 [3] = assay: Microscopy inspection of cell morphology (spherical cells) after exposure to carbon sources; assay type: cell-based, Vibrio cholerae
Description: Cells were grown to exponential phase and spread on a 1% (w/v) agar pad (ultrapure agarose, Invitrogen) for analysis. For snapshot analyses, cells images were acquired using a DM6000-B (Leica) microscope. For time-lapse analyses the agarose pad was made using M9-MM and images were acquired using an Evolve 512 EMCCD camera (Roper Scientific) attached to an Axio Observe spinning disk (Zeiss).
as §1

[4] = muropeptide group, M9-MM, 0.2% L-Ara for 5 hours
[5] = M9-MM supplemented with casamino acids (CAA)

SMILES	effect on V. cholerae growth or morphology (V. cholerae N16961 [1])	Anhydro-muropeptides (%) (EPV50; [4])	DAP-DAP cross-linked muropeptides (%) (EPV50; [4])	Dimers (%) (EPV50; [4])	Trimers (%) (EPV50; [4])	Monomers (%) (EPV50; muropeptide group, M9-MM, 0.2% L-Ara for 5 hours, mean of three experiments (±SD))	Average glycan chain length (EPV50; peptidoglycan feature, calculated from the number of anhydro-muropeptides, M9-MM, 0.2% L-Ara for 5 hours)	Total cross-linkage (%) (EPV50; peptidoglycan feature, M9-MM, 0.2% L-Ara for 5 hours)	amount of peptidoglycan per cell, times lower than in rod-shaped (non-treated) cells (EPV50; spherical L-Ara-treated bacteria, 0.2% L-Ara)	glycan chains, times shorter than in non-treated cells (EPV50; spherical L-Ara-treated cells, 0.2% L-Ara)	killing at 0.2 % ([2]; 5 h, read-out: cell death)	viability at 0.2 % ([2]; M9-MM, 0.2% L-Ara for 5 hours, ratio CFU t1 / CFU t0, read-out: percentage of survival to L-Ara treatment)	effect on cell growth (OD) (V. cholerae N16961 [1]; M9-MM and M9-MM+CAA, increasing amounts of L-Ara)	L-Ara concentration at which all cells exhibited the spherical phenotype (V. cholerae N16961 [3]; [5])	L-Ara concentration at which spherical cells started to appear (V. cholerae N16961 [3]; [5])	cell morphology (V. cholerae N16961 [3]; M9-MM, 0.02% L-Ara, a few hours)	cell shape (V. cholerae N16961 [3]; M9-MM, 0.1% L-Ara (Figure 1A))	L-Ara concentration at which cells became completely round (V. cholerae N16961 [3]; M9-MM, a few hours)	L-Ara concentration that triggers a toxic response (stop of proliferation, loss of rod-shape) (V. cholerae N16961 [3]; Vibrio cholerae, summary statement)
O=C[C@@H](O)[C@H](O)[C@H](O)CO [D-Arabinose, reference compound]	none of them, including D-Arabinose, affected V. cholerae growth or morphology																		
O=C[C@H](O)[C@@H](O)[C@@H](O)CO [L-Arabinose]	deleterious effects on cell growth or cell morphology	21.9 (±3.7) %	7.5 (±0.9) %	47.2 (±3.1) %	12.6 (±4.8) %	40.2 (±3.2) %	7.5 (±1.1)	47.2 (±5.0) %	around 10 times	around 2 times	~50%	~50%	arrested V. cholerae cell growth	0.5%	0.2%	normal rod-shape	spherical shape with a heterogeneous diameter size	0.1%	0.02%
